{"source": "patent US9481635B2", "about": "“Process for preparing gabapentin” (ZACH SYSTEM S.P.A., priority 2013, dated 2016)", "key": {"[1]": {"conditions": "as stated for U.S. Pat. No. 6,518,456; cited from earlier work"}, "[2]": {"assay": "Solubility of gabapentin in anhydrous extraction solvents", "format": "physicochemical", "from_the_text": "Thus, the solution of gabapentin in cresol after extraction may be anhydrified, for example, by distillation so as to crystallize the undesired residual salts leaving the gabapentin itself in solution. Said solution of gabapentin in cresol obtained from the removal of the salts by filtration and/or by contro-extraction with water has a chloride content of a few tens of ppm.\nThe same technique cannot be applied to the corresponding solution in n-butanol of the prior art, since the solubility of gabapentin in the anhydrous solvent is very low; as a result the butanolic solution of gabapentin extraction from the Hofmann end solution, when subjected to anhydrification reaction, leads to the co-precipitation of gabapentin and of these same salts, thus, with no advantage from the point of view of product purity."}}, "note": "“Also recorded” adds a separate entry of the source."}
{"smiles": "NCC1(CC(=O)O)CCCCC1", "note": "[gabapentin, 1-(aminomethyl)-cyclohexaneacetic acid]", "values": [{"measurement": "isoelectric point (pH)", "setting": "[1]", "result": 7.2, "unit": "pH"}, {"measurement": "solubility", "setting": "[2]; in anhydrous cresol", "result": "about 20%"}, {"measurement": "solubility", "setting": "[2]; in anhydrous n-butanol", "result": "virtually zero; also recorded: very low"}]}
